Values of other authors, collected in US20240252403A1, “SKIN CARE COMPOSITION FOR APPLICATION TO SKIN” (COSMED PHARMACEUTICAL CO., LTD., priority 2021, published 2024).

SMILES | saturation solubility [g/100 g]
Cc1ncc(CO)c(CO)c1O.Cl [pyridoxine hydrochloride] | 22.0
NCCS(=O)(=O)O [taurine] | 7.9
N[C@@H](CCC(=O)N[C@@H](CS)C(=O)NCC(=O)O)C(=O)O [glutathione] | 13.0
